Earlier results on 2 molecules are cited in paper PMC6337650 (Molecules, 2018).

For one series, the system named is AGS cells. The settings on record: read-out: IC50 against AGS cells; cited from earlier work.
For the next series, the system named is HT29 cells. The settings on record: cell line printed as HT24 in b5; read-out: IC50 against HT24 cell line; cited from earlier work.

For the molecule `COC(=O)C(Cc1c[nH]c2ccccc12)NC(=O)[C@]1(C)CC[C@]2(C)CC[C@]3(C)C4=CC=C5C(=CC(=O)C(O)=C5C)[C@]4(C)CC[C@@]3(C)C2C1` (some centres unmarked) [Compound C], in the series with AGS cells, the half-maximal inhibitory concentration (IC50) is 440 nM.
Regarding `CC(=O)O[C@H]1CC[C@@]2(C)C(CC[C@]3(C)C2CC=C2C4CC(C)(C)CC[C@]4(C(=O)NCCN4CCCC4)CC[C@]23C)C1(C)C` (some centres unmarked) [Compound B], in the series with HT29 cells, the IC50 was 1300 nM.
